Source: PubChem BioAssay (NCI)
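Test compounds were applied to cells in 96-well plates for 48 hours at 5 doses. TGI is the concentration that stops growth completely.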

Legend:
Test in all cases: DTP human tumour cell line panel, 48 h
SK-MEL-2 melanoma = tested on: SK-MEL-2 melanoma
UO-31 renal = tested on: UO-31 renal
HCC-2998 colon = tested on: HCC-2998 colon
HT29 colon = tested on: HT29 colon
IGROV1 ovarian = tested on: IGROV1 ovarian
DU-145 prostate = tested on: DU-145 prostate
NCI-H23 lung = tested on: NCI-H23 lung
A498 renal = tested on: A498 renal
MALME-3M melanoma = tested on: MALME-3M melanoma
MDA-MB-231 breast = tested on: MDA-MB-231 breast
MDA-MB-435 = tested on: MDA-MB-435
ACHN renal = tested on: ACHN renal
SK-OV-3 ovarian = tested on: SK-OV-3 ovarian
M14 melanoma = tested on: M14 melanoma
SF-539 CNS = tested on: SF-539 CNS

SMILES | TGI (SK-MEL-2 melanoma) [µM] | TGI (UO-31 renal) [µM] | TGI (HCC-2998 colon) [µM] | TGI (HT29 colon) [µM] | TGI (IGROV1 ovarian) [µM] | TGI (DU-145 prostate) [µM] | TGI (NCI-H23 lung) [µM] | TGI (A498 renal) [µM] | TGI (MALME-3M melanoma) [µM] | TGI (MDA-MB-231 breast) [µM] | TGI (MDA-MB-435) [µM] | TGI (ACHN renal) [µM] | TGI (SK-OV-3 ovarian) [µM] | TGI (M14 melanoma) [µM] | TGI (SF-539 CNS) [µM]
Nc1nc(Cl)c(N)c(NCC2(CO)CC(CCCc3ccccc3)C2)n1 (stereo not given) | 30.6 | > 100 | > 100 | > 22.8 | > 73.9 | > 100 | > 84.4 | 66.1 | 9.92 | 99.7 | > 100 | 99.7 | > 100 | > 53.4 | > 64.2
CCN(CC)CCNCc1cc(Cl)cc2c1OCOC2 | > 10 | > 10 | > 10 | > 10 | > 10 | > 10 | > 10 | > 10 | > 10 | > 10 | > 10 | > 10 | > 10 | > 10 | > 10
Cc1ccc(/C(O)=C/C(=O)C(=O)NN=C(c2ccccc2)c2ccccc2)cc1 | > 100 | > 100 | > 100 | > 100 | > 100 | > 100 | > 100 | > 100 | > 100 | > 100 | > 100 | > 100 | > 100 | > 100 | > 100
COC(=O)C1=C(OC(=O)c2ccccc2)C(C(=O)OC)[C@]2(O)[C@@H](C(=O)OC)[C@H]1C[C@@H](c1ccccc1)[C@@H]2C(=O)OC (stereo not given in full) | 13.9 | 10.1 | 25 | 30.7 | 21.1 | 30.3 | 32.7 | 64.1 | 52.1 | 41.4 | 10.8 | 72.4 | 48.3 | 9.57 | 14.6
CCOP(=O)(OCC)C(C)(CC)NC (stereo not given) | > 100 | > 100 | > 100 | > 100 | > 100 | > 100 | > 100 | > 100 | > 100 | > 100 | > 100 | > 100 | > 100 | > 100 | > 100
COC(=O)c1c(O)ccc2c1C1(Cc3ccccc3C1=O)C(O)O2 (stereo not given) | > 100 | 85 | 69.9 | > 100 | 36.3 | > 100 | > 100 | > 100 | 71.4 | 52.1 | 31.1 | 55.7 | 57.8 | 52.2 | 55.7
O=C(O)CNC(=O)c1c2ccccc2nc2ccccc12 | > 100 | > 100 | > 100 | > 100 | > 100 | > 100 | > 100 | > 100 | > 100 | > 100 | > 100 | > 100 | > 100 | > 100 | > 100
CSCCC(NC(=O)Cc1ccc(C(=O)c2ccccc2)cc1)C(=O)O (stereo not given) | > 100 | > 100 | > 100 | > 100 | > 100 | > 100 | > 100 | > 100 | > 100 | > 100 | > 100 | > 100 | > 100 | > 100 | > 100
OC1(c2ccccc2)CSC2=Nc3ccccc3C3CCN1N23 (stereo not given) | 32.1 | 28.7 | 88.7 | 33.8 | 27.4 | 29.7 | 79.2 | 44.7 | 81.7 | 31.9 | 34 | 54.1 | > 100 | 38.3 | 30.8
CCC(c1c[nH]c2ccc(Br)cc12)c1c[nH]c2ccc(Br)cc12 | 23.1 | 18.7 | 5.73 | 10.4 | 19 | 10.8 | 11 | 13.3 | 24.9 | 25.4 | 11 | 12.8 | 24.1 | 14.2 | 28.6
C[C@H]1C=C2[C@@H]3CC(C)(C(=O)O)CC[C@]3(C)CC[C@]2(C)[C@]2(C)CC[C@H]3C(C)(C)[C@@H](OC(=O)c4cccc5c(=O)c6ccccc6[nH]c45)CC[C@]3(C)[C@@H]12 (stereo not given in full) | > 100 | > 100 | > 100 | > 100 | > 100 | > 100 | > 100 | > 100 | > 100 | > 100 | > 100 | > 100 | > 100 | > 100 | > 100
OC(c1ccc(-c2ccccc2)cc1)C(F)(F)c1nc2ccccc2o1 (stereo not given) | > 100 | > 100 | > 100 | > 100 | > 100 | > 82.7 | > 100 | > 41.2 | > 100 | > 96.6 | > 100 | > 100 | > 100 | > 100 | > 72.3
COc1nc(N)c(N=CC(OC(C)=O)C(OC(C)=O)C(COC(C)=O)OC(C)=O)c(=O)n1C (stereo not given) | > 100 | > 100 | > 100 | > 100 | > 100 | > 100 | > 100 | > 100 | > 100 | > 100 | > 100 | > 100 | > 100 | > 100 | > 100
COC(=O)c1c(OC(C)=O)ccc2c1c1c(OC(C)=O)c3ccccc3c(OC(C)=O)c1n2Cc1ccccc1 | 6.81 | 24.7 | 5.22 | 31.5 | 19.7 | 45.5 | 18.3 | 43.8 | 22.6 | 37.2 | 27.9 | 47.1 | 19.5 | 17.2 | 4.04
